Results from patent US9067923B2, “Substituted quinoxalines” (Kyowa Hakko Kirin Co., Ltd., priority 2011, dated 2015).

Test system: production of kynurenine in human gastric cancer cell line KATO-III
Test: Inhibitory activity on the production of kynurenine (IFN-γ-treated KATO-III cells)
Format: cell-based
Settings: 10 μmol/L test compound, KATO-III cells treated with IFN-γ, 96 hours
Method: This assay was performed by a modification of the method described in J. Biol. Chem., vol. 263, pp. 2041-2048 ([…]). For culture of the human gastric cancer cell line […], RPMI 1640 (GIBCO, 11875) supplemented with 10 vol % FBS (GIBCO, 10091-148, lot. 665285) was used. One μL of a test substance in a DMSO solution was diluted with 199 μL of the culture medium and placed in wells of a 384-well plate (10 μL/well). Next, IFN-γ (Sigma, I-3265) was added to a fresh culture medium to a concentration of 31.25 ng/mL, and KATO-III cells were suspended at 50,000 cells/mL in the culture medium. Forty μL of the suspension was added to each well (2,000 cells/well) and cultured under 5% CO2 at 37° C. for 96 hours. The final concentration of DMSO was limited to 0.1 vol % or less so that DMSO itself may not affect the kynurenine concentration measured in this assay. After the culture, 10 μL of a 30 w/v % aqueous trichloroacetic acid solution was added to each well, and incubation was performed at 65° C. for 30 minutes. The plate was centrifruged at 2,500×g for 5 minutes and 15 μL of the supernatant in each well was transferred into another 384-well plate. To the transferred supernatant, 15 μL of a 2 w/v % solution of p-dimethylaminobenzaldehyde in acetic acid was added, incubation was performed at 65° C. for 20 minutes and the absorbance was measured at 480 nm.
Sample: the absorbance value of the well to which DMSO solution containing a test substance was added and in which the cells were treated with IFN-γ.
Blank: the absorbance value of the well to which DMSO not containing a test substance was added and in which the cells were treated with IFN-γ.
Control: the absorbance value of the well to which DMSO not containing a test substance was added and in which the cells were not treated with IFN-γ.
The inhibition % of each test compound was calculated by formula A1.
In this assay, the expression of IDO in KATO-III cells is induced by IFN-γ treatment, and kynurenine in the culture medium is quantified. The kynurenine concentration in a culture medium is known to increase in proportion to the enzymatic activity of intracellular IDO (for example, J. Biol. Chem., vol. 263, pp. 2041-2048 (1988)). […] The production of kynurenine is known to be inhibited by IDO inhibitors (for example, J. Clin. Invest., vol. 117, No. 5, pp. 1147-1154 ([…])), and thus it is speculated that compounds (I) also have an inhibitory effect on IDO.

Compound	inhibition at 10 µM
CCCS(=O)(=O)Nc1nc2ccccc2nc1OC(C1CCN(c2ccccn2)CC1)C(F)(F)F (centres unmarked) [Compound 20, N-(3-(2,2,2-trifluoro-1-(1-(pyridin-2-yl)piperidin-4-yl)ethoxy)quinoxalin-2-yl)propane-1-sulfonamide]	≥ 80%
CCCS(=O)(=O)Nc1nc2ccccc2nc1OC(C1CCN(c2cccnc2)CC1)C(F)(F)F (centres unmarked) [Compound 21, N-(3-(2,2,2-trifluoro-1-(1-(pyridin-3-yl)piperidin-4-yl)ethoxy)quinoxalin-2-yl)propane-1-sulfonamide]	≥ 80%
CCCS(=O)(=O)Nc1nc2ccccc2nc1O[C@H](c1cnc(C(C)=O)s1)C(F)(F)F [Compound 32, (S)-N-(3-(1-(2-acetylthiazol-5-yl)-2,2,2-trifluoroethoxy)quinoxalin-2-yl)propane-1-sulfonamide]	≥ 80%
CCCS(=O)(=O)Nc1nc2ccccc2nc1OC(C1CCN(c2ncccc2C(N)=O)CC1)C(F)(F)F (centres unmarked) [Compound 10, 2-(4-(2,2,2-trifluoro-1-(3-(propylsulfonamido)quinoxalin-2-yloxy)ethyl)piperidin-1-yl)nicotinamide]	≥ 80%
CCCS(=O)(=O)Nc1nc2ccccc2nc1OC(C1CCN(c2ncccc2C(=O)N(C)C)CC1)C(F)(F)F (centres unmarked) [Compound 2, N,N-dimethyl-2-(4-(2,2,2-trifluoro-1-(3-(propylsulfonamido)quinoxalin-2-yloxy)ethyl)piperidin-1-yl)nicotinamide]	≥ 80%
CCCS(=O)(=O)Nc1nc2ccccc2nc1OC(C1CCN(c2ncccc2C#N)CC1)C(F)(F)F (centres unmarked) [Compound 9, N-(3-(1-(1-(3-cyanopyridin-2-yl)piperidin-4-yl)-2,2,2-trifluoroethoxy)quinoxalin-2-yl)propane-1-sulfonamide]	≥ 80%
CCCS(=O)(=O)Nc1nc2ccccc2nc1O[C@H](C1CCN(c2ccc(C(N)=O)nc2)CC1)C(F)(F)F [Compound 34, (R)-5-(4-(2,2,2-trifluoro-1-(3-(propylsulfonamido)quinoxalin-2-yloxy)ethyl)piperidin-1-yl)picolinamide]	≥ 80%
CCCS(=O)(=O)Nc1nc2ccccc2nc1OC(C1CCN(c2ccnc(C#N)c2)CC1)C(F)(F)F (centres unmarked) [Compound 16, N-(3-(1-(1-(2-cyanopyridin-4-yl)piperidin-4-yl)-2,2,2-trifluoroethoxy)quinoxalin-2-yl)propane-1-sulfonamide]	≥ 80%
CCCS(=O)(=O)Nc1nc2ccccc2nc1OC(C1CCN(c2ccc(C#N)cn2)CC1)C(F)(F)F (centres unmarked) [Compound 15, N-(3-(1-(1-(5-cyanopyridin-2-yl)piperidin-4-yl)-2,2,2-trifluoroethoxy)quinoxalin-2-yl)propane-1-sulfonamide]	≥ 80%
CCCS(=O)(=O)Nc1nc2ccccc2nc1OC(C1CCN(c2ccc(C(N)=O)cn2)CC1)C(F)(F)F (centres unmarked) [Compound 19, 6-(4-(2,2,2-trifluoro-1-(3-(propylsulfonamido)quinoxalin-2-yloxy)ethyl)piperidin-1-yl)nicotinamide]	≥ 80%
CCCS(=O)(=O)Nc1nc2ccccc2nc1OC(C1CCN(c2cncc(C#N)c2)CC1)C(F)(F)F (centres unmarked) [Compound 7, N-(3-(1-(1-(5-cyanopyridin-3-yl)piperidin-4-yl)-2,2,2-trifluoroethoxy)quinoxalin-2-yl)propane-1-sulfonamide]	≥ 80%
CCCS(=O)(=O)Nc1nc2ccccc2nc1OC(C1CCN(c2ccncc2C#N)CC1)C(F)(F)F (centres unmarked) [Compound 17, N-(3-(1-(1-(3-cyanopyridin-4-yl)piperidin-4-yl)-2,2,2-trifluoroethoxy)quinoxalin-2-yl)propane-1-sulfonamide]	≥ 80%
CCCS(=O)(=O)Nc1nc2ccccc2nc1OC(C1CCN(c2cccc(C(=O)N(C)C)n2)CC1)C(F)(F)F (centres unmarked) [Compound 3, N,N-dimethyl-6-(4-(2,2,2-trifluoro-1-(3-(propylsulfonamido)quinoxalin-2-yloxy)ethyl)piperidin-1-yl)picolinamide]	≥ 80%
CCCS(=O)(=O)Nc1nc2ccccc2nc1OC(C1CCN(c2ccc(C(=O)N(C)C)cn2)CC1)C(F)(F)F (centres unmarked) [Compound 8, N,N-dimethyl-6-(4-(2,2,2-trifluoro-1-(3-(propylsulfonamido)quinoxalin-2-yloxy)ethyl)piperidin-1-yl)nicotinamide]	≥ 80%
CCCS(=O)(=O)Nc1nc2ccccc2nc1OC(C1CCN(c2nccs2)CC1)C(F)(F)F (centres unmarked) [Compound 18, N-(3-(2,2,2-trifluoro-1-(1-(thiazol-2-yl)piperidin-4-yl)ethoxy)quinoxalin-2-yl)propane-1-sulfonamide]	≥ 80%
CCCS(=O)(=O)Nc1nc2ccccc2nc1OC(C1CCN(c2cncnc2)CC1)C(F)(F)F (centres unmarked) [Compound 14, N-(3-(2,2,2-trifluoro-1-(1-(pyrimidin-5-yl)piperidin-4-yl)ethoxy)quinoxalin-2-yl)propane-1-sulfonamide]	≥ 80%
CCCS(=O)(=O)Nc1nc2ccccc2nc1OC(c1ccc(-c2noc(COC)n2)nc1)C(F)(F)F (centres unmarked) [Compound 26, N-(3-(2,2,2-trifluoro-1-(6-(5-(methoxymethyl)-1,2,4-oxadiazol-3-yl)pyridin-3-yl)ethoxy)quinoxalin-2-yl)propane-1-sulfonamide]	≥ 80%
COCCS(=O)(=O)Nc1nc2ccccc2nc1OC(c1ccc(-c2noc(C3CC3)n2)nc1)C(F)(F)F (centres unmarked) [Compound 23, N-(3-(1-(6-(5-cyclopropyl-1,2,4-oxadiazol-3-yl)pyridin-3-yl)-2,2,2-trifluoroethoxy)quinoxalin-2-yl)-2-methoxyethanesulfonamide]	≥ 80%
CCCS(=O)(=O)Nc1nc2ccccc2nc1OC(C1CCN(c2ccc(C(N)=O)nc2)CC1)C(F)(F)F (centres unmarked) [Compound 5, 5-(4-(2,2,2-trifluoro-1-(3-(propylsulfonamido)quinoxalin-2-yloxy)ethyl)piperidin-1-yl)picolinamide]	≥ 80%
CCCS(=O)(=O)Nc1nc2ccccc2nc1OC(C1CCN(c2cc(C(=O)N(C)C)ccn2)CC1)C(F)(F)F (centres unmarked) [Compound 1, N,N-dimethyl-2-(4-(2,2,2-trifluoro-1-(3-(propylsulfonamido)quinoxalin-2-yloxy)ethyl)piperidin-1-yl)isonicotinamide]	≥ 80%
CCCS(=O)(=O)Nc1nc2ccccc2nc1OC(C1CCN(c2nnnn2C)CC1)C(F)(F)F (centres unmarked) [Compound 12, N-(3-(2,2,2-trifluoro-1-(1-(1-methyl-1H-tetrazol-5-yl)piperidin-4-yl)ethoxy)quinoxalin-2-yl)propane-1-sulfonamide]	≥ 80%
CCCS(=O)(=O)Nc1nc2ccccc2nc1OC(C1CCN(c2cc(C#N)ccn2)CC1)C(F)(F)F (centres unmarked) [Compound 6, N-(3-(1-(1-(4-cyanopyridin-2-yl)piperidin-4-yl)-2,2,2-trifluoroethoxy)quinoxalin-2-yl)propane-1-sulfonamide]	≥ 80%
CCCS(=O)(=O)Nc1nc2ccccc2nc1OC(C1CCN(c2cnccn2)CC1)C(F)(F)F (centres unmarked) [Compound 13, N-(3-(2,2,2-trifluoro-1-(1-(pyrazin-2-yl)piperidin-4-yl)ethoxy)quinoxalin-2-yl)propane-1-sulfonamide]	≥ 80%
